pEC50: −log10 of the molar value.

This assay relates to HCV replicon. Put plainly: HCV replicon replication assay (NPT ELISA) in Huh-7 replicon-containing cells. As to conditions: Hepatitis C virus, 72 h; HCV replicon in Huh-7 cells, three days incubation; read-out: EC50. The format is cell-based. The gist of the method: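 Replication was scored by capture ELISA of neomycin phosphotransferase, whose level tracks replicon replication, after graded compound treatment. The cells were Huh-7 harbouring an HCV-IRES/neo/EMCV-IRES/NS3–NS5B/3′-NTR replicon, plated at 6000-7500 cells/well and dosed 24 h later at 60-70% confluence; interferon alpha was the positive control.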
A general note: Replicon systems follow genome replication, usually without infectious particles.
A word on the pEC50: it is the EC50 on a negative log10 scale, so that one unit is a factor of ten. With `C=C[C@@H]1C[C@]1(NC(=O)[C@@H]1C[C@@H](Oc2cc(-c3ccccc3)nc3cc(OC)ccc23)CN1C(=O)[C@@H](CC(=O)N1C2CCC1CC(=O)C2)C(C)(C)C)C(=O)NS(=O)(=O)C1CC1` [Compound 169, (2S,4R)-1-((2S)-2-tert-butyl-4-oxo-4-(3-oxo-8-aza-bicyclo[3.2.1]octan-8-yl)butanoyl)-N-((1R,2S)-1-(cyclopropyl-sulfonylcarbamoyl)-2-vinylcyclopropyl)-4-(7-methoxy-2-phenylquinolin-4-yloxy)pyrrolidine-2-carboxamide], the pEC50 is greater than 6.00.
For `C=C[C@@H]1C[C@]1(NC(=O)[C@@H]1C[C@@H](Oc2cc(-c3ccccc3)nc3cc(OC)ccc23)CN1C(=O)[C@@H](CC(=O)N1CC2C3CCC(C)(O3)C2C1)C(C)(C)C)C(=O)NS(=O)(=O)C1CC1` (stereo partly drawn) [Compound 170] the value was greater than 6.00; for `C=C[C@@H]1C[C@]1(NC(=O)[C@@H]1C[C@@H](NC(=O)c2cc(-c3ccccc3)nc3ccccc23)CN1C(=O)[C@@H](CC(=O)N1CCCCC1)C(C)(C)C)C(=O)NS(=O)(=O)C1CC1` [Compound 171, N-((3R,5S)-1-((S)-2-tert-butyl-4-oxo-4-(piperidin-1-yl)butanoyl)-5-((1R,2S)-1-(cyclopropyl-sulfonylcarbamoyl)-2-vinylcyclo-propylcarbamo-yl)pyrrolidin-3-yl)-2-phenylquinoline-4-carboxamide], greater than 6.00.
For `C=C[C@@H]1C[C@]1(NC(=O)[C@@H]1C[C@@H](Oc2cc(-c3ccccc3)nc3cc(OC)ccc23)CN1C(=O)[C@@H](CC(=O)N1C[C@@H]2C[C@H]1CN2C(=O)OC(C)(C)C)C(C)(C)C)C(=O)NS(=O)(=O)C1CC1` [Compound 172, (1S,4S)-tert-butyl 5-((S)-3-((2S,4R)-2-((1R,2S)-1-(cyclopropyl-sulfonylcarbamoyl)-2-vinylcyclopropyl-carbamoyl)-4-(7-methoxy-2-phenylquinolin-4-yloxy)pyrrolidine-1-carbonyl)-4,4-dimethylpentanoyl)-2,5-diazabi-cyclo[2.2.1]heptane-2-carboxylate] the value was greater than 6.00; for `C=C[C@@H]1C[C@]1(NC(=O)[C@@H]1C[C@@H](Oc2cc(-c3ccccc3)nc3cc(OC)ccc23)CN1C(=O)[C@@H](CC(=O)N1CC2CC1CO2)C(C)(C)C)C(=O)NS(=O)(=O)C1CC1` (stereo partly drawn) [Compound 174, (2S,4R)-1-((2S)-2-(2-(2-oxa-5-aza-bicyclo[2.2.1]heptan-5-yl)-2-oxoethyl)-3,3-dimethylbutanoyl)-N-((1R,2S)-1-(cyclopropyl-sulfonylcarbamoyl)-2-vinylcyclopropyl)-4-(7-methoxy-2-phenylquinolin-4-yloxy)pyrrolidine-2-carboxamide], greater than 6.00; for `C=C[C@@H]1C[C@]1(NC(=O)[C@@H]1C[C@@H](Oc2cc(-c3ccccc3)nc3cc(OC)ccc23)CN1C(=O)[C@@H](CC(=O)N1CCC(N(C2CC2)S(=O)(=O)c2cccc(C(F)(F)F)c2)CC1)C(C)(C)C)C(=O)NS(=O)(=O)C1CC1` [Compound 175, (2S,4R)-1-((S)-2-tert-butyl-4-(4-(N-cyclopropyl-3-(tri-fluoromethyl)phenyl-sulfonamido)piper-idin-1-yl)-4-oxobutanoyl)-N-((1R,2S)-1-(cyclopropyl-sulfonylcarbamoyl)-2-vinylcyclopropyl)-4-(7-methoxy-2-phenylquinolin-4-yloxy)pyrrolidine-2-carboxamide], greater than 6.00.
`C=C[C@@H]1C[C@]1(NC(=O)[C@@H]1C[C@@H](Oc2cc(-c3ccccc3)nc3cc(OC)ccc23)CN1C(=O)[C@@H](CC(=O)N1CCCC1C(F)(F)F)C(C)(C)C)C(=O)NS(=O)(=O)C1CC1` (stereo partly drawn) [Compound 176, (2S,4R)-1-((2S)-2-tert-butyl-4-oxo-4-(2-(trifluoro-methyl)pyrrolidin-1-yl)butanoyl)-N-((1R,2S)-1-(cyclopropylsulfonyl-carbamoyl)-2-vinylcyclopropyl)-4-(7-methoxy-2-phenylquinolin-4-yloxy)pyrrolidine-2-carboxamide]: the pEC50 is greater than 6.00.
For `C=C[C@@H]1C[C@]1(NC(=O)[C@@H]1C[C@@H](NC(=O)n2c3ccccc3c3ccccc32)CN1C(=O)[C@@H](CC(=O)N1CCCCC1)C(C)(C)C)C(=O)NS(=O)(=O)C1CC1` [Compound 177, N-((3R,5S)-1-((S)-2-tert-butyl-4-oxo-4-(piperidin-1-yl)butanoyl)-5-((1R,2S)-1-(cyclopropyl-sulfonylcarbamoyl)-2-vinylcyclopropyl-carbamoyl)pyr-rolidin-3-yl)-9H-carbazole-9-carboxamide] the value was greater than 6.00; for `C=C[C@@H]1C[C@]1(NC(=O)[C@@H]1C[C@@H](NC(=O)n2c3ccccc3c3ccccc32)CN1C(=O)[C@@H](CC(=O)N1CCCC(F)(F)C1)C(C)(C)C)C(=O)NS(=O)(=O)C1CC1` [Compound 178, N-((3R,5S)-1-((S)-2-tert-butyl-4-(3,3-difluoropiperidin-1-yl)-4-oxobutanoyl)-5-((1R,2S)-1-(cyclo-propylsulfonyl-carbamoyl)-2-vinylcyclopropyl-carbamoyl)pyrrolidin-3-yl)-9H-carbazole-9-carboxamide], greater than 6.00.
For `C=C[C@@H]1C[C@]1(NC(=O)[C@@H]1C[C@@H](Oc2cc(-c3ccccn3)nc3c(Cl)c(OC)ccc23)CN1C(=O)[C@@H](CC(=O)N1CCCCC1)C(C)(C)C)C(=O)NS(=O)(=O)C1CC1` [Compound 179, (2S,4R)-1-((S)-2-tert-butyl-4-oxo-4-(piperidin-1-yl)butanoyl)-4-(8-chloro-7-methoxy-2-(pyridin-2-yl)quinolin-4-yloxy)-N-((1R,2S)-1-(cyclopropyl-sulfonylcarbamoyl)-2-vinylcyclo-propyl)pyrrolidine-2-carboxamide] the value was greater than 6.00; for `C=C[C@@H]1C[C@]1(NC(=O)[C@@H]1C[C@@H](Oc2cc(-c3ccccn3)nc3c(Cl)c(OC)ccc23)CN1C(=O)[C@@H](CC(=O)N1CCOCC1)C(C)(C)C)C(=O)NS(=O)(=O)C1CC1` [Compound 180, (2S,4R)-1-((S)-2-tert-butyl-4-morpholino-4-oxobutanoyl)-4-(8-chloro-7-methoxy-2-(pyridin-2-yl)quinolin-4-yloxy)-N-((1R,2S)-1-(cyclopropyl-sulfonylcarbamoyl)-2-vinyl-cyclopropyl)pyr-rolidine-2-carboxamide], greater than 6.00; for `C=C[C@@H]1C[C@]1(NC(=O)[C@@H]1C[C@@H](Oc2cc(-c3ccccn3)nc3c(Cl)c(OC)ccc23)CN1C(=O)[C@@H](CC(=O)N1CCCC(F)(F)C1)C(C)(C)C)C(=O)NS(=O)(=O)C1CC1` [Compound 181, (2S,4R)-1-((S)-2-tert-butyl-4-(3,3-difluoropiperidin-1-yl)-4-oxobutanoyl)-4-(8-chloro-7-methoxy-2-(pyridin-2-yl)quinolin-4-yloxy)-N-((1R,2S)-1-(cyclopropyl-sulfonylcarbamoyl)-2-vinyl-cyclopropyl)pyr-rolidine-2-carboxamide], greater than 6.00.
For `C=C[C@@H]1C[C@]1(NC(=O)[C@@H]1C[C@@H](Oc2cc(-c3ccccc3)nc3cc(OC)ccc23)CN1C(=O)[C@@H](CC(=O)N1CCC(c2ccccc2)CC1)C(C)(C)C)C(=O)NS(=O)(=O)C1CC1` [Compound 182, (2S,4R)-1-((S)-2-tert-butyl-4-oxo-4-(4-phenylpiperidin-1-yl)butanoyl)-N-((1R,2S)-1-(cyclopropylsulfonyl-carbamoyl)-2-vinylcyclopropyl)-4-(7-methoxy-2-phenylquinolin-4-yloxy)pyrrolidine-2-carboxamide] the value was greater than 6.00; for `C=C[C@@H]1C[C@]1(NC(=O)[C@@H]1C[C@@H](Oc2cc(-c3ccccc3)nc3cc(OC)ccc23)CN1C(=O)[C@@H](CC(=O)N1CCCC2CCCCC21)C(C)(C)C)C(=O)NS(=O)(=O)C1CC1` (stereo partly drawn) [Compound 183, (2S,4R)-1-((2S)-2-tert-butyl-4-(octa-hydroquinolin-1(2H)-yl)-4-oxobutanoyl)-N-((1R,2S)-1-(cyclopropylsulfonyl-carbamoyl)-2-vinylcyclopropyl)-4-(7-methoxy-2-phenylquinolin-4-yloxy)pyrrolidine-2-carboxamide], greater than 6.00; for `C=C[C@@H]1C[C@]1(NC(=O)[C@@H]1C[C@@H](Oc2cc(-c3ccccc3)nc3cc(OC)ccc23)CN1C(=O)[C@@H](CC(=O)N1CC[C@@H](NC(=O)OC(C)(C)C)C1)C(C)(C)C)C(=O)NS(=O)(=O)C1CC1` [Compound 184, tert-butyl (R)-1-((S)-3-((2S,4R)-2-((1R,2S)-1-(cyclo-propylsulfonyl-carbamoyl)-2-vinyl-cyclopropyl-carbamoyl)-4-(7-methoxy-2-phenylquinolin-4-yloxy)pyrrolidine-1-carbonyl)-4,4-dime-thylpentanoyl)pyr-rolidin-3-ylcarbamate], greater than 6.00.
For `C=CC1C[C@]1(NC(=O)[C@@H]1C[C@@H](Oc2cc(-c3ccccc3)nc3cc(OC)ccc23)CN1C(=O)[C@@H](CC(=O)N1CC(C)CC(C)C1)C(C)(C)C)C(=O)NS(=O)(=O)C1CC1` (stereo partly drawn) [Compound 185], the negative-log EC50 (pEC50) is greater than 6.00.
For `C=C[C@@H]1C[C@]1(NC(=O)[C@@H]1C[C@@H](NC(=O)n2c3ccccc3c3ccccc32)CN1C(=O)[C@@H](CC(=O)N1CCC(F)(F)C1)C(C)(C)C)C(=O)NS(=O)(=O)C1CC1` [Compound 186, N-((3R,5S)-1-((S)-2-tert-butyl-4-(3,3-difluoropyrrolidin-1-yl)-4-oxobutanoyl)-5-((1R,2S)-1-(cyclopropylsulfonyl-carbamoyl)-2-vinyl-cyclopropyl-carbamoyl)pyrrolidin-3-yl)-9H-carbazole-9-carboxamide], the pEC50 was greater than 6.00.
For `C=C[C@@H]1C[C@]1(NC(=O)[C@@H]1C[C@@H](NC(=O)n2c3ccccc3c3ccccc32)CN1C(=O)[C@@H](CC(=O)N1CCC(F)(F)CC1)C(C)(C)C)C(=O)NS(=O)(=O)C1CC1` [Compound 187, N-((3R,5S)-1-((S)-2-tert-butyl-4-(4,4-difluoropiperidin-1-yl)-4-oxobutanoyl)-5-((1R,2S)-1-(cyclopropylsulfonyl-carbamoyl)-2-vinyl-cyclopropyl-carbamoyl)pyrrolidin-3-yl)-9H-carbazole-9-carboxamide] the value was greater than 6.00.

(Values after patent publication US9133115B2 (ACHILLION PHARMACEUTICALS, INC., priority 2008, dated 2015).)
